Data on 6 compounds can be found in patent US20220273679A1, “METHODS AND COMPOSITIONS FOR TREATING AND PREVENTING DAMAGE TO SKIN” (New York Society for the Relief of the Ruptured and …, priority 2019, published 2022).

Test [1] concerns WT mice. In words: UVR-induced keratinocyte apoptosis and skin injury in WT mice treated topically before UVR. The class given is in vivo, mouse. The following applies: 4 mM topically prior to UVR, FIGS. 12B-12E.
The test system of test [2] is Primary murine keratinocytes. In words: Mouse keratinocyte-LC co-culture exposed to UVR (activated caspase-3+ keratinocytes). The class given is cell-based. Conditions: keratinocytes pre-treated with 2 μM for 30 minutes before LC co-culture and UVR. Here is the method: FIGS. 13A and 13B. Effect of human LCs on human keratinocytes without UVR and further characterization of in vitro LC-keratinocyte EGFR signaling (13A) Effect of human LCs on human keratinocytes without UVR. Primary human keratinocytes were co-cultured with or without human LCs and activated caspase-3+ keratinocytes were enumerated 24 hours later (n=3 human LC donors). Validation of siRNA-mediated EGFR knockdown in primary murine keratinocytes was performed. Keratinocytes were treated with control or EGFR-targeted siRNAs (#1 and #2) and EGFR expression was measured 5 days later (on the day of UVR exposure) by flow cytometry. […]
For immunofluorescence staining of cell culture experiments, polystyrene chamber slides (Lab-Tek) with cultured keratinocytes were washed with PBS, fixed with 4% paraformaldehyde for 20 minutes, permeabilized and blocked with Triton-X (0.2%) and BSA (1%), and stained as indicated. Activated caspase-3+ and total DAPI+ cells were quantified with ImageJ software by a blinded observer and the percent of activated caspase-3+ Langerin− cells (keratinocytes) and activated caspase-3+ Langerin+ cells (LCs) was calculated.
Primary mouse keratinocyte cultures were prepared from mouse tail skin as described (23). […] The co-cultures rested overnight and were then exposed to UVR and analyzed 24 hours later. […]

Test [3] concerns ADAM17. The test can be described thus: Ex vivo ADAM17 activity assay by TNFR1 cleavage, sorted murine LCs. The class given is cell-based, mouse. The following applies: 25 ng/mL, 45 minutes. As to the method: FIGS. 6A-6D. UVR directly activates LC ADAM17 and EGFR ligand release. (6A, 6B) Effect of UVR on ADAM17 activity in sorted murine (6A) and human (6B) LCs as measured by change in TNFR1 mean fluorescence intensity (MFI) 45 minutes after the indicated treatments. PMA is a positive control. (n=5-6 mice; n=4 human donors). (6C,6D) Conditioned supernatants from murine (6C) or human LCs (6D) were added to A431 EGFR indicator cells and phosphoEGFR was measured 10 minutes later by flow cytometry. Murine LC supernatants were from (6A); human LC supernatants were from cells treated similarly to (6B), except that antibody was washed out prior to UVR (see Example 8). Left: Representative histogram. Right: Quantification relative to cells treated with control WT LC supernatants (6C) or control IgG-treated LC supernatants (6D). […]
To measure ADAM17 activity, we quantified the level of cell-surface tumor necrosis factor receptor 1 (TNFR1), a substrate for ADAM17 (31). […]
Sorted mouse LCs were plated in a 96-well plate at 20,000-25,000 cells/well in RPMI 1640 supplemented with L-glutamine, penicillin/streptomycin, and HEPES buffer. The cells were treated with phorbol 12-myristate 13-acetate (PMA) (Sigma-Aldrich) at 25 ng/mL or UVR (500 J/m2) and analyzed 45 minutes later. […] ADAM17 activity is expressed as the percent change in TNFR1 mean fluorescence intensity (MFI) relative to that of untreated LCs. […]

The test system of test [4] is ADAM17. Conditions: mouse embryonic fibroblasts; cited from earlier work.
The test system of test [5] is epithelial wound healing. Conditions: used at 0.1 μg/ml; cited from earlier work.

As for `C=CC(=O)Nc1ccc2ncnc(Nc3cccc(Br)c3)c2c1` [PD168393], the “UVR-induced keratinocyte apoptosis and skin injury” value in test [1] is “increased”. The “protective effect of LCs against UVR-induced keratinocyte apoptosis” value in test [2] is “abolished the protective effect of LCs”.

Turning to `CCCCCCCCCCCCCC(=O)O[C@@H]1[C@@H](C)[C@@]2(O)[C@@H](C=C(CO)C[C@]3(O)C(=O)C(C)=C[C@@H]23)[C@@H]2C(C)(C)[C@]12OC(C)=O` [PMA, phorbol 12-myristate 13-acetate], in test [3], the “LC cell-surface TNFR1 (ADAM17 activity)” value is reported as “reduced”.

Regarding “Lysophosphatidic acid [LPA, reference compound]”, the ADAM17 activation result in test [4] is “activated”.

For the compound TGFα: EGFR ligand, the epithelial wound healing result in test [5] is “enhance”.

For the compound TNFα, the ADAM17 activation result in test [4] is “activated”.

With Thrombin, the ADAM17 activation result in test [4] is reported as “activated”.
